Measurements: patent US20230086865A1, “ANTI-INFECTIVE BICYCLIC PEPTIDE CONJUGATES” (priority 2020, published 2023)
Converted amounts (≈) assume the structure as drawn.

How the values were obtained:
[1] = system: A. baumannii AR0275; assay: MIC follow-on study; type: cell-based; conditions: Acinetobacter baumannii
Method: (§1) Minimum inhibitory concentration (MIC) assays were carried out using E. coli strains: GKCW101; GKCW102 and ATCC25922 using the method described by Antimicrobial Agents and Chemotherapy December 2016 Volume 60 Number 12 pages 7372-7381 and CLSI, 2020. Performance standards for antimicrobial susceptibility testing. Clinical Lab Standards Institute.
(§2) As a follow-on study, the MIC of BCY13246 was measured against a range of bacterial targets and compared with the MIC for the constituent bicyclic peptide ([…]) and carrier peptide ([…]) alone along with existing anti-microbial agents meropenem and levofloxacin. […].

[2] = system: C. freundii AR0116; assay: MIC follow-on study; type: cell-based; conditions: Citrobacter freundii
Method: as §1, §2

[3] = system: E. cloacae AR0032; assay: MIC follow-on study; type: cell-based; conditions: Enterobacter cloacae
Method: as §1, §2

[4] = system: E. cloacae AR0038; assay: MIC follow-on study; type: cell-based; conditions: Enterobacter cloacae
Method: as §1, §2

[5] = system: E. cloacae KPC114; assay: MIC follow-on study; type: cell-based; conditions: Enterobacter cloacae
Method: as §1, §2

[6] = system: E. coli ATCC BAA-2469; assay: MIC follow-on study; type: cell-based; conditions: Escherichia coli, ATCCBAA2469
Method: as §1, §2

[7] = system: E. coli NCTC 13441; assay: MIC follow-on study; type: cell-based; conditions: Escherichia coli, NCTC13441
Method: as §1, §2

[8] = system: K. pneumoniae ATCC 700603; assay: MIC follow-on study; type: cell-based; conditions: Klebsiella pneumoniae, ATCC700603
Method: as §1, §2

[9] = system: K. pneumoniae KPNIH1; assay: MIC follow-on study; type: cell-based; conditions: Klebsiella pneumoniae
Method: as §1, §2

[10] = system: P. mirabilis AR159; assay: MIC follow-on study; type: cell-based; conditions: Proteus mirabilis
Method: as §1, §2

[11] = system: E. coli UTI89; assay: MIC follow-on study; conditions: Escherichia coli
[12] = system: K. pneumoniae ATCC 43816; assay: MIC follow-on study; conditions: Klebsiella pneumoniae, ATCC43816
[13] = system: K. pneumoniae B454; assay: MIC follow-on study; conditions: Klebsiella pneumoniae
[14] = system: E. cloacae B173; assay: MIC follow-on study; conditions: Enterobacter cloacae
[15] = system: P. mirabilis ATCC 43071; assay: MIC follow-on study; conditions: Proteus mirabilis, ATCC43071
[16] = system: C. freundii B121; assay: MIC follow-on study; conditions: Citrobacter freundii
[17] = system: A. baumannii NCTC 12156; assay: MIC follow-on study; conditions: Acinetobacter baumannii, NCTC12156
[18] = system: E. coli ATCC25922; assay: Minimum inhibitory concentration (MIC) assay; conditions: Escherichia coli
[19] = system: P. aeruginosa NCTC 13437; assay: MIC follow-on study; type: cell-based; conditions: Pseudomonas aeruginosa, NCTC13437
Method: as §1, §2

[20] = system: P. aeruginosa ATCC 27853; assay: MIC follow-on study; conditions: Pseudomonas aeruginosa, ATCC27853

| SMILES | MIC [1] | MIC [2] | MIC [3] | MIC [4] | MIC [5] | MIC [6] | MIC [7] | MIC [8] | MIC [9] | MIC [10] | MIC [11] | MIC [12] | MIC [13] | MIC [14] | MIC [15] | MIC [16] | MIC [17] | MIC [18] | MIC [19] | MIC [20] |
| --- | --- | --- | --- | --- | --- | --- | --- | --- | --- | --- | --- | --- | --- | --- | --- | --- | --- | --- | --- | --- |
| C[C@H]1COc2c(N3CCN(C)CC3)c(F)cc3c(=O)c(C(=O)O)cn1c23 [Levofloxacin, levofloxacin] | > 2 µg/mL | > 2 µg/mL | 0.5 µg/mL (≈ 1.38 µM) | > 2 µg/mL | 0.5 µg/mL (≈ 1.38 µM) | > 2 µg/mL | > 2 µg/mL | 0.5 µg/mL (≈ 1.38 µM) | > 2 µg/mL | 2 µg/mL (≈ 5.53 µM) | 0.03 µg/mL (≈ 0.083 µM) | 0.06 µg/mL (≈ 0.166 µM) | > 2 µg/mL | 0.03 µg/mL (≈ 0.083 µM) | 0.06 µg/mL (≈ 0.166 µM) | 0.25 µg/mL (≈ 0.692 µM) | 0.25 µg/mL (≈ 0.692 µM) | 0.016 µg/mL (≈ 0.0443 µM) |  |  |
| C[C@@H](O)[C@H]1C(=O)N2C(C(=O)O)=C(S[C@@H]3CN[C@H](C(=O)N(C)C)C3)[C@H](C)[C@H]12 [Meropenem, meropenem] | > 2 µg/mL | > 2 µg/mL | 0.25 µg/mL (≈ 0.652 µM) | > 2 µg/mL | > 2 µg/mL | > 2 µg/mL | 0.016 µg/mL (≈ 0.0417 µM) | 0.03 µg/mL (≈ 0.0782 µM) | > 2 µg/mL | > 2 µg/mL | 0.016 µg/mL (≈ 0.0417 µM) | 0.03 µg/mL (≈ 0.0782 µM) | 0.03 µg/mL (≈ 0.0782 µM) | 0.03 µg/mL (≈ 0.0782 µM) | 0.06 µg/mL (≈ 0.156 µM) | 0.03 µg/mL (≈ 0.0782 µM) | 1 µg/mL (≈ 2.61 µM) | 0.016 µg/mL (≈ 0.0417 µM) | > 2 µg/mL | 0.5 µg/mL (≈ 1.3 µM) |
